Reference: US20030092640A1, “Azalide antibiotic compositions” (Pfizer Inc., priority 2001, published 2003)
In brackets after ≈: the same amount, converted by molar mass. Several values for one entry are separate records, joined by “and”; a condition that tells them apart may be missing. Identical values can stand only once.

Tests used:
[1] = Potency retention (HPLC stability) of azalide in aqueous propylene glycol/citric acid compositions; format: physicochemical; conditions: 0.1 M citric acid
Experimental: As used in this application, the term “potency” means the amount of an azalide compound present in a “test” sample subjected to a particular set of experimental conditions during a particular time interval, relative to the amount of the azalide compound present in an otherwise identical “control” sample stored at 5° C. for the same time interval. Upon completion of the experiment for a given sample, the test and control samples are typically subjected to appropriate processing steps to allow accurate determination of the amount of the azalide compound. Relative amounts of azalide compound in the test and control samples may be determined by any number of means which are well-known in the art, such as high performance liquid chromatography (“HPLC”), nuclear magnetic resonance spectroscopy (“NMR”), gas chromatography (“GC”), mass spectrometry (“MS”), liquid chromatography/mass spectrometry (“LC/MS”), GC/MS, and thin layer chromatography (“TLC”).
Preferred methods for determining that a stable azalide composition has been obtained include gel chromatography, thin-layer chromatography, and HPLC. More preferably, HPLC is used. To monitor the compositions of the invention for potency, after dilution to final volume and sterilization by filtration, the compositions were subdivided into 3.5 mL glass vials which were sealed with rubber stoppers and an aluminum crimp. For the tests reported below, approximately 10 vials containing 2.5 mL each were prepared.
Approximately 30 mL of each composition listed in Table 1 below was prepared as follows:
1) Sufficient citric acid was added to Water for Injection to produce a solution having a final concentration of acid of 0.1 M;
2) The compound of formula 1a or 1b was added in an amount to produce a final azalide concentration of 100 mg/mL (0.12 mmol/mL of the composition), and the mixture was stirred until the azalide was dissolved;
3) Propylene glycol was added to produce a concentration in the final mixture of from about 25% to about 75% by weight relative to the total volume;
4) The pH was adjusted by addition of 10% aqueous HCl or 10 M aqueous NaOH as necessary;
5) Water for Injection was added to bring the volume to 30 mL;
6) Each sample was subdivided by filtration through a 0.22 micron Millex GV filter into 3.5 mL glass vials which were each sealed with a rubber stopper and an overseal consisting of an aluminum crimp. Approximately 10 vials containing 2.5 mL each were prepared for each sample.
To monitor the stability of the azalide compositions, vials were assayed by HPLC after exposure to elevated temperatures for a period of time. Aliquots were removed from vials and diluted with a mixture of 15% 10 mM potassium phosphate buffer, pH 6.5, 85% 1:1 (v/v) acetonitrile:methanol to a concentration of approximately 1.0 mg of the compound of formula 1 per mL total sample volume. Diluted samples were subjected to chromatography in a Waters Alliance 2690 HPLC system having a 2487 UV detector. The column was a Waters Symmetry C-18, 5 micron (250×4.6 mm), the mobile phase was the same as the phosphate/acetonitrile/methanol diluent above and the flow rate was 1 mL/minute. Peaks were detected by monitoring ultraviolet absorption at 210 nm. Relative amounts of azalide compound in the experimental samples and the controls were determined by taking the ratio of their relative chromatogram-peak areas. Although HPLC was used in this experiment, other known methods, including NMR, GC, MS, LC/MS, GC/MS, and TLC can be used to evaluate the potency of the compound of formula 1.
The results are reported in Table 1 below as a percentage of the compound of formula 1 remaining after exposure to various temperature and duration conditions, relative to the amount of the compound present in an otherwise identical sample stored at 5° C. for the same time interval.

[2] = test system: Pasteurella multocida (strain 59A067); assay: Assay I liquid dilution MIC, P. multocida; format: cell-based; conditions: 100% inhibition of growth, 37° C., 18 hours, BHI broth, read-out: MIC against P. multocida
Experimental: This assay employs conventional methodology and interpretation criteria and is designed to test for activity against Pasteurella multocida, using the liquid dilution method in microliter format. A single colony of P. multocida (strain 59A067) is inoculated into 5 mL of brain heart infusion (BHI) broth. The azalide formulation is prepared by solubilizing 1 mg of the azalide composition in 125 μL of dimethylsulfoxide (DMSO). Dilutions of the azalide compositions are prepared using uninoculated BHI broth. The concentrations of the azalide compounds used range from 200 μg/mL to 0.098 μg/mL by two-fold serial dilutions. The P. multocida inoculated BHI is diluted with uninoculated BHI broth to make a 10^4 cell suspension per 200 μL. The BHI cell suspensions are mixed with respective serial dilutions of the azalide compositions, and incubated at 37° C. for 18 hours.
Accordingly, as expected, the azalide compounds used in this invention are active against a variety of organisms.

[3] = test system: E. coli; assay: Assay I liquid dilution MIC, E. coli; format: cell-based; conditions: Escherichia coli, 18 h, read-out: MIC against E. coli
[4] = test system: S. aureus; assay: Assay I liquid dilution MIC, S. aureus; format: cell-based; conditions: Staphylococcus aureus, 18 h, read-out: MIC against S. aureus
[5] = preparation 1: propylene glycol 50 w/v %, pH 4.5, 100 mg/mL azalide
[6] = preparation 2: propylene glycol 25 w/v %, pH 5.0, 100 mg/mL azalide
[7] = preparation 3: propylene glycol 75 w/v %, pH 5.0, 100 mg/mL azalide
[8] = preparation 7: propylene glycol 25 w/v %, pH 6.0, 100 mg/mL azalide
[9] = preparation 8: propylene glycol 75 w/v %, pH 6.0, 100 mg/mL azalide
[10] = preparation 9: propylene glycol 50 w/v %, pH 6.5, 100 mg/mL azalide
[11] = preparations 4, 5, 6: propylene glycol 50 w/v %, pH 5.5, 100 mg/mL azalide

Row | SMILES | Potency (% of 5° C.) 6 weeks, 50° C. [1, 5] [%] | Potency (% of 5° C.) 12 weeks, 50° C. [1, 5] [%] | Potency (% of 5° C.) 6 weeks, 50° C. [1, 6] [%] | Potency (% of 5° C.) 12 weeks, 50° C. [1, 6] [%] | Potency (% of 5° C.) 6 weeks, 50° C. [1, 7] [%] | Potency (% of 5° C.) 12 weeks, 50° C. [1, 7] [%] | Potency (% of 5° C.) 6 weeks, 50° C. [1, 8] [%] | Potency (% of 5° C.) 12 weeks, 50° C. [1, 8] [%] | Potency (% of 5° C.) 6 weeks, 50° C. [1, 9] [%] | Potency (% of 5° C.) 12 weeks, 50° C. [1, 9] [%] | Potency (% of 5° C.) 6 weeks, 50° C. [1, 10] [%] | Potency (% of 5° C.) 12 weeks, 50° C. [1, 10] [%] | Potency (% of 5° C.) 6 weeks, 50° C. [1, 11] | Potency (% of 5° C.) 12 weeks, 50° C. [1, 11] | MIC [2] [µg/mL] | MIC [3] [µg/mL] | MIC [4] [µg/mL]
1 | CC[C@H]1OC(=O)[C@H](C)[C@@H](O[C@H]2C[C@@](C)(OC)[C@](O)(CNC(C)C)[C@H](C)O2)[C@H](C)[C@@H](O[C@@H]2O[C@H](C)C[C@H](N(C)C)[C@H]2O)[C@](C)(O)C[C@@H](C)CN(C)[C@H](C)[C@@H](O)[C@]1(C)O [Compound 1a, 1-Oxa-6-azacyclopentadecan-15-one, 13-[[2,6-dideoxy-3-C-methyl-3-O-methyl-4-C-[[(1-methylethyl)amino]methyl]-α-L-ribo-hexopyranosyl]oxy]-2-ethyl-3,4,10-trihydroxy-3,5,6,8,10,12,14-heptamethyl-11-[[3,4,6-trideoxy-3-(dimethylamino)-β-D-xylo-hexopyranosyl]oxy]-, (2R,3S,4R,5R,8R,10R,11R,12S,13S,14R)-] | 91.9 | 91.3 | 93.6 | 87.9 | 96.0 | 102.6 | 90.6 | 85.7 | 89.5 | 89.8 | 84.1 | 75.9 | 96.3% and 95.6% and 93.9% | 92.9% and 91.4% and 90.4% | 0.05 (≈ 0.061 µM) | 0.39 (≈ 0.476 µM) | 0.2 (≈ 0.244 µM)
2 | CC[C@H]1OC(=O)[C@H](C)[C@@H](O[C@H]2C[C@@](C)(OC)[C@](O)(CN(C)CC)[C@H](C)O2)[C@H](C)[C@@H](O[C@@H]2O[C@H](C)C[C@H](N(C)C)[C@H]2O)[C@](C)(O)C[C@@H](C)CN(C)[C@H](C)[C@@H](O)[C@]1(C)O [Compound 1b, 1-Oxa-6-azacyclopentadecan-15-one, 13-[[2,6-dideoxy-4-C-[(ethylmethylamino)methyl]-3-C-methyl-3-O-methyl-α-L-ribo-hexopyranosyl]oxy]-2-ethyl-3,4,10-trihydroxy-3,5,6,8,10,12,14-heptamethyl-11-[[3,4,6-trideoxy-3-(dimethylamino)-β-D-xylo-hexopyranosyl]oxy]-, (2R,3S,4R,5R,8R,10R,11R,12S,13S,14R)-] | 96.1 | 92.1 | 96.5 | 92.4 | 98.8 | 96.1 | 90.0 | 81.5 | 93.8 | 94.0 | 86.5 | 76.5 | 94.9% and 93.0% and 93.3% | 91.8% and 96.1% and 95.3% | 0.05 (≈ 0.061 µM) | 0.39 (≈ 0.476 µM) | 0.39 (≈ 0.476 µM)
